Source: patent US20250019361A1, “(3-QUINOLYL)-QUINAZOLINE” (BASF SE, priority 2021, published 2025)

Each molecule was assayed on Septoria tritici (assay: Microtest: activity against leaf blotch on wheat caused by Septoria tritici). Settings: 8 ppm.
Assay type: cell-based
Protocol: The active compounds were formulated separately as a stock solution having a concentration of 10000 ppm in dimethyl sulfoxide.
The stock solutions were mixed according to the ratio, pipetted onto a micro titer plate (MTP) and diluted with water to the stated concentrations.
A spore suspension of Septoria tritici in an aqueous biomalt or yeast-bactopeptone-glycerine or DOB solution was then added.
The measured parameters were compared to the growth of the active compound-free control variant (100%) and the fungus-free blank value to determine the relative growth in % of the pathogens in the respective active compounds.
`N#CN1c2ccccc2C(c2cnc3c(F)cccc3c2)=NC12CCCC2` [Ex-7] was tested, and the “growth of the pathogen (relative growth in %, control 100%)” value (from here on “relative growth in %”) was 19%.
For `CC1(C)N=C(c2cnc3c(F)cccc3c2)c2ccccc2N1C#N` [Ex-8], the “relative growth in %” value was 19%.
In the case of `CCCCN1c2c(F)cccc2C(c2cnc3c(F)cccc3c2)=NC1(C)C` [Ex-9], the “relative growth in %” value is reported as 19%.
With `CCN1c2c(F)cccc2C(c2cnc3c(F)cccc3c2)=NC1(C)C` [Ex-10] the “relative growth in %” value was 19%.
`CCCN1c2c(F)cccc2C(c2cnc3c(F)cccc3c2)=NC1(C)C` [Ex-11] was tested, and the “relative growth in %” value was 19%.
